Read-outs that look alike come from different tables or passages of the source.
Experiments:
[1] = tested on: receptor; conditions: cited from earlier work
[2] = Example 3: growth performance, graded doses of dietary T3; assay type: in vivo, broiler cockerels; conditions: for Average Daily Gain: week no. 5 to 7
Method: Day-old broiler cockerels were randomly assigned to 24 pens (5 birds/pen) in a battery brooder. The total duration of the bird management period lasted from 7 to 8 weeks. Hereafter, the end of the first week of life of the birds is referred to as week no. 1 (i.e. 7 days of life), the end of the second week as week no. 2, etc. At week no. 3, four birds from each pen were transferred to wire grow-out cages. […] 5 to week no. 7 (4 pens/treatment). Body weight and feed consumption were determined at weekly intervals. A 5 ml blood sample was obtained from each bird at week no. 7 and stored at -20° C. until assayed for plasma hormones.
Data were analyzed by analysis of variance for a randomized complete-block design. Data for ADG, ADFC and FTG were based on pen average. Unless otherwise indicated, data used for analysis was obtained from individual birds. Difference among treatments were tested by Fisher's protected LSD method.

[3] = From the text: Referring now to broiler chickens as a benchmark for the beneficial effects of this invention, it must be noted that these chickens grow from a weight of 30 to 50 grams at hatching to about 1.5-3 or even as much as 5 kilograms of body weight at market age. Of this market weight, 15-20 wt.-% is protein, 2-3 wt.-% is inorganic (showing up as ash in proximate analysis of body composition), and more than 10 wt.-% (e.g. 10-20 wt.-%) is fat, which means that the protein:fat ratio (by weight) is likely to be at or below 1.5:1 and certainly well below 2:1.
[4] = plasma thyroid hormone bioactivity 360-1200% of normal

N[C@@H](Cc1cc(I)c(Oc2ccc(O)c(I)c2)c(I)c1)C(=O)O [T3, 3,3',5-triiodo-L-thyronine]
metabolic activity of thyroid hormones [1]: most active compounds of formula I | effect on ADFC and GTF ([2]; 0.25 and 1.0 ppm): did not affect the ADFC and GTF | effect on ADG ([2]; 0.25 ppm): the decrease in 0.25 ppm-fed birds was not significant | Average Daily Feed Consumption ([2]; 0.25 ppm of feed): 150.2 ± 10.0 g | Gain-To-Feed Ratio ([2]; 0.25 ppm of feed): 0.441 ± .014 | Average Daily Gain ([2]; 0.25 ppm of feed): 66.5 ± 6.0 g | Average Daily Feed Consumption ([2]; 1.0 ppm of feed): 139.0 ± 4.6 g | Gain-To-Feed Ratio ([2]; 1.0 ppm of feed): 0.409 ± 0.01 | Average Daily Gain ([2]; 1.0 ppm of feed): 57.0 ± 3.0 g | ADFC, reduction ([2]; 4.0 ppm (p<0.05)): 35% | gain to feed ratio (GTF), reduction ([2]; 4.0 ppm (p<0.05)): 33% | Average Daily Feed Consumption ([2]; 4.0 ppm of feed): 99.5 ± 1.7 g | Gain-To-Feed Ratio ([2]; 4.0 ppm of feed): 0.302 ± .013 | Average Daily Gain ([2]; 4.0 ppm of feed): 30.0 ± 1.1 g | body weight gain, depression [2, 4]: ≤ 57% | feed consumption, depression [2, 4]: ≤ 35% | effect on weight gain ([3]; 0.1 ppm): no significant adverse effect upon weight gain can be detected | protein content of the carcass relative to fat content ([3]; 0.1 ppm): improved relative to fat content | effect on growth rate ([3]; 0.25 ppm): virtually no statistically significant adverse effect on growth rate | effect on weight gain ([3]; 1 ppm): some deviation from normal weight gain is observed

Reference: US5168102A, “Endocrine manipulation to improve body composition of poultry” (priority 1990, dated 1992)
